The text below walks through data of ChEMBL document CHEMBL1122408, “Pyridinylpiperazines, a new class of selective alpha 2-adrenoceptor antagonists” (J Med Chem, 1983).

Bounds are passed on as bounds.

For orientation: Ki means the equilibrium dissociation constant of an inhibitor or competing ligand from its target. Higher therefore signals weaker binding. One may read the pA2 as the negative logarithm of the molar antagonist concentration that doubles the agonist concentration needed for the same response. A lower pA2 goes with lower antagonist potency.

Test [1] addresses T1, Alpha-2A adrenergic receptor (Bos taurus, UniProt Q28838).
T1 sequence (Q28838 whole entry): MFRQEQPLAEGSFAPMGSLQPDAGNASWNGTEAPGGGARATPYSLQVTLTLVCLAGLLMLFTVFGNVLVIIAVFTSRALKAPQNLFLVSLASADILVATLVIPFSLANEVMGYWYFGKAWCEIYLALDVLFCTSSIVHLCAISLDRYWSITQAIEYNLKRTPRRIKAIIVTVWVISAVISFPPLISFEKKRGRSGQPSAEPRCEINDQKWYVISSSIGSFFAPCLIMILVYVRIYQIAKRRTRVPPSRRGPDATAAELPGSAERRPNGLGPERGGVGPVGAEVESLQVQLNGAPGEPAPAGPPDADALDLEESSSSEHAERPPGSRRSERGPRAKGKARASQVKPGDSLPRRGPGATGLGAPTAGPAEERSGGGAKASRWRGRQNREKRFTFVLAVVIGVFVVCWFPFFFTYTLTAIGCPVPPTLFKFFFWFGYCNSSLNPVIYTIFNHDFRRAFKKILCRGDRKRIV
Briefly: Binding activity against alpha-2 adrenergic receptor from calf cerebral cortex, using [3H]clonidine as the radioligand. Type of test: tissue-based.

Test [2] has as its target T2, Adrenergic receptor alpha-1 (Rattus norvegicus, UniProt P15823+P23944+P43140).
T2 sequence (P15823 whole entry): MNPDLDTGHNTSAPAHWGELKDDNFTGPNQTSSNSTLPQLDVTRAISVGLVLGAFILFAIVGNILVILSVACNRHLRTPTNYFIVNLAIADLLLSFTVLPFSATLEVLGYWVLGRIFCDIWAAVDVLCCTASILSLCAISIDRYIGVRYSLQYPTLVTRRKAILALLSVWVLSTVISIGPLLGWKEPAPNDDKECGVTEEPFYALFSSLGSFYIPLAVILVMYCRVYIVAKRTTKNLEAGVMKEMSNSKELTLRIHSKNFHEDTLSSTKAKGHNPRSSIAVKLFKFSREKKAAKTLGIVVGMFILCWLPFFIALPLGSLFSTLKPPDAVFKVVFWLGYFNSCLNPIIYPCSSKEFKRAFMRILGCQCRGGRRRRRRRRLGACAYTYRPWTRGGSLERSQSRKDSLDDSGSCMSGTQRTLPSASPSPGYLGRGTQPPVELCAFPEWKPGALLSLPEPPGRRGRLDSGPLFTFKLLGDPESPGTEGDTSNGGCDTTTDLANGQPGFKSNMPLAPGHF
T2 sequence (P23944 whole entry): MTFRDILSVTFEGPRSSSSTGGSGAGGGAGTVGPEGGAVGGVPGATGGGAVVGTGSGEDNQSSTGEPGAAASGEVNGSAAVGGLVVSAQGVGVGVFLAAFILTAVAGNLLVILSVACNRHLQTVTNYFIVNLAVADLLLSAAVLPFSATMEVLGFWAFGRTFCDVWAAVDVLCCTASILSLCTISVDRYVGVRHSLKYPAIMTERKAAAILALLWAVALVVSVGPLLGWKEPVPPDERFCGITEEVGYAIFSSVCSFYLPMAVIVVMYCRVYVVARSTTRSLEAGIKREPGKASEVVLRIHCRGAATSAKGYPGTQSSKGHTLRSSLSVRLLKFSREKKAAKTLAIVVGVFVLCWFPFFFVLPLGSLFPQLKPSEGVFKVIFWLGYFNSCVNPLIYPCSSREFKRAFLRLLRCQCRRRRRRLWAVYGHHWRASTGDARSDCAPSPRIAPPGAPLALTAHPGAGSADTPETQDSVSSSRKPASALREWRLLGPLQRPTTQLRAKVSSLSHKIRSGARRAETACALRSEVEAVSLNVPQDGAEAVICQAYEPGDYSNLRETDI
T2 sequence (P43140 whole entry): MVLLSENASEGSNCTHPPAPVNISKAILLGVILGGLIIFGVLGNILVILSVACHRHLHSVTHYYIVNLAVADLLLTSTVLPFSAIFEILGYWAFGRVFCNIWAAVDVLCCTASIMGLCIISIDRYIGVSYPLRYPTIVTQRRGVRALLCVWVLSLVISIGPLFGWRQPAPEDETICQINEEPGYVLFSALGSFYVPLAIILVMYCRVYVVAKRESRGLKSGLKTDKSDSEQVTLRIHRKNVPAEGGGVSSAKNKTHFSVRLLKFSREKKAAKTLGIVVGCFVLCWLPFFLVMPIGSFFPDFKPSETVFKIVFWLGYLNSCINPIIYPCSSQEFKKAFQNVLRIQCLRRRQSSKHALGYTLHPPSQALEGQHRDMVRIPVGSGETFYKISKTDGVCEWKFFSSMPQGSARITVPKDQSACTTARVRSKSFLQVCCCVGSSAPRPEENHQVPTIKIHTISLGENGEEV
Kind of test: Presynaptic antagonistic activity against alpha-1 adrenergic receptor from rat, isolated, field-stimulated vas deferens, using methoxamine as the agonist. The format is functional.

The target in test [3] is Adrenergic receptor alpha-2 (Rattus norvegicus) (UniProt P22086+P19328+P22909).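 Further: anesthetized rats, antagonism at central alpha-2 adrenergic receptors read out as reversal of mydriasis induced by clonidine.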

`CN1CCN(c2ncccc2F)CC1`: the affinity in test [1] corresponds to a Ki of 5 nM. In test [2], this compound returned a pA2 of 6.2. Besides, the AD50 in test [3] worked out at 0.67 mg/kg.
The compound `Clc1ccccc1N1CCNCC1` came in with a Ki in test [1] of 25 nM. In test [2], this compound gave a pA2 of 6.5. Also, the AD50 in test [3] was 1.03 mg/kg.
Turning to `Clc1cccnc1N1CCN(Cc2ccccc2)CC1`, in test [1], the Ki was 120 nM. In addition, the pA2 in test [2] worked out at 7. The AD50 in test [3] was > 3 mg/kg.
`CN1CCN(c2ncccc2Cl)CC1` registered a Ki in test [1] of 2.7 nM. Besides, the pA2 in test [2] amounted to 6.5. This compound yielded an AD50 in test [3] of 0.56 mg/kg.
In the case of `Fc1cccnc1N1CCNCC1`, the Ki in test [1] was 8.2 nM. For the same compound, in test [2], the pA2 came to 5.18. For the same compound, the AD50 in test [3] was found to be 0.23 mg/kg.
